According to the NIST ThermoML archive (doi:10.1016/j.jct.2016.03.028):
Numbers after ± are expanded uncertainties.

Key:
[1] = Liquid; for speed of sound: 100 kPa, Frequency=3 MHz, Sing-around technique in a fixed-path interferometer; for mass density: 101.3 kPa, Vibrating tube method
[2] = refractive index (Na D-line) (dimensionless); details: 100 kPa, Liquid, Standard Abbe refractometry
[3] = xn = mol fraction of the nth substance listed; details: Liquid, x1 = 1; for speed of sound: 100 kPa, Frequency=3 MHz, Sing-around technique in a fixed-path interferometer; for mass density: 101.3 kPa, Vibrating tube method
[4] = refractive index (Na D-line) (dimensionless); xn = mol fraction of the nth substance listed; details: 100 kPa, Liquid, Standard Abbe refractometry, x1 = 1

## CCOS(=O)(=O)[O-].CCn1cc[n+](C)c1 [1-ethyl-3-methylimidazolium ethyl sulfate]
[1]; 298.15 K
  speed of sound: 1680.8 ± 1.6 m/s
  mass density: 1236.38 ± 2 kg/m3
[1]; 308.15 K
  speed of sound: 1656.4 ± 1.6 m/s
  mass density: 1229.49 ± 2 kg/m3
[1]; 318.15 K
  speed of sound: 1632.4 ± 1.6 m/s
  mass density: 1222.78 ± 2 kg/m3
[1]; 328.15 K
  speed of sound: 1608.9 ± 1.6 m/s
  mass density: 1216.16 ± 2 kg/m3
[2]; 298.15 K
  refractive index: 1.47907 ± 0.002
[2]; 308.15 K
  refractive index: 1.47645 ± 0.002
[2]; 318.15 K
  refractive index: 1.47374 ± 0.002
[2]; 328.15 K
  refractive index: 1.47112 ± 0.002

## CCOS(=O)(=O)[O-].CCn1cc[n+](C)c1 [1-ethyl-3-methylimidazolium ethyl sulfate] + CCCOCCO
[3]; 298.15 K
  speed of sound: 1680.8 ± 1.6 m/s
  mass density: 1236.38 ± 2 kg/m3
[3]; 308.15 K
  speed of sound: 1656.4 ± 1.6 m/s
  mass density: 1229.49 ± 2 kg/m3
[3]; 318.15 K
  speed of sound: 1632.4 ± 1.6 m/s
  mass density: 1222.78 ± 2 kg/m3
[3]; 328.15 K
  speed of sound: 1608.9 ± 1.6 m/s
  mass density: 1216.16 ± 2 kg/m3
[4]; 298.15 K
  refractive index: 1.47907 ± 0.002
[4]; 308.15 K
  refractive index: 1.47645 ± 0.002
[4]; 318.15 K
  refractive index: 1.47374 ± 0.002
[4]; 328.15 K
  refractive index: 1.47112 ± 0.002

## CCCOCCO [2-propoxyethanol]
[1]; 298.15 K
  speed of sound: 1299.9 ± 1.5 m/s
  mass density: 908.31 ± 2 kg/m3
[1]; 308.15 K
  speed of sound: 1265 ± 1.5 m/s
  mass density: 899.5 ± 2 kg/m3
[1]; 318.15 K
  speed of sound: 1230.1 ± 1.5 m/s
  mass density: 890.56 ± 2 kg/m3
[1]; 328.15 K
  speed of sound: 1195.8 ± 1.5 m/s
  mass density: 881.49 ± 2 kg/m3
[2]; 298.15 K
  refractive index: 1.41255 ± 0.002
[2]; 308.15 K
  refractive index: 1.40814 ± 0.002
[2]; 318.15 K
  refractive index: 1.40355 ± 0.002
[2]; 328.15 K
  refractive index: 1.39908 ± 0.002
